Source: patent US20180284132A1, “KITS FOR STRATIFYING SCOLIOTIC SUBJECTS” (CHU SAINTE-JUSTINE, priority 2013, published 2018)
Each block holds one compound with its values, some of them ahead of it.

Key:
[1] = test system: response to Gi stimulation; experiment: Effect of serine/threonine kinase inhibitors on response to Gi stimulation in osteoblasts (CDS); type: cell-based, human; conditions: inhibitor 5 μM, 1 hour before agonist
Method: FIG. 13A-FIG. 13B show the effect of various serine/threonine kinase inhibitors on response to Gi stimulation in osteoblasts from control and AIS functional groups. Cells were treated with Protein kinase A (PKA) inhibitor H89 (5 μM), Protein kinase C (PKC) inhibitor Gö6983 (5 μM), Ca^2+/calmodulin-dependent protein kinase (CaMK) (1,2,4) inhibitor STO-609 acetate (5 μM), Ca^2+/calmodulin-dependent protein kinase II (CaMK-2) inhibitor KN93 (5 μM), Casein kinase 1 (CK1) inhibitor D4476 (5 μM) or vehicle for 1 hour prior to stimulation with (FIG. 13A) LPA (10^−6 M) or (FIG. 13B) Somatostatin (10^−6 M). Response to Gi stimulation was measured by CDS. Data were normalised to response in osteoblasts treated with vehicle (% response in presence of vehicle shown on the y-axis and measured by CDS), and are expressed as mean±SE, of n=12 patients in each functional group. * P<0.05, **P<0.01, ***P<0.001, vs control group.
(§1) The functionality of Gi, Gs and Gq proteins was evaluated by CDS assay in osteoblasts, and the functionality of Gi was also evaluated by CDS assay in myoblasts and PBMCs from the same individuals, using CellKey™ apparatus, as previously described (Akoume et al., 2010 and WO 2010/040234, 2010 to Moreau et al.).
In order to identify putative serine/threonine kinases phosphorylating Gi isoforms in AIS, control and AIS osteoblasts were treated with a panel of serine/threonine kinase inhibitors prior to their stimulation with two distinct agonists (LPA and somatostatin). Of note, Gi stimulation induced via LPA or somatostatin receptor activation by their agonists in control osteoblasts was not affected by any kinase inhibitor (FIG. 13A-FIG. 13B). […] Cellular response in FG3 osteoblasts was not improved by inhibition of neither of PKC nor CaMK.

melatonin receptor [2] = experiment: Cellular response of osteoblasts to melatonin receptor agonists, cellular dielectric spectroscopy (CDS); type: cell-based, human; conditions: for order of agonist potency: response at maximum concentration (10 μM), osteoblasts of control and AIS groups
Method: (§2) Data were normalised to maximal response (% maximal response) in cells from control subjects. […] The impedance represented in y-axis as dZiec, indicates the resistance (ohms) of the cells toward the electric current applied by the Cellkey™ apparatus and represents the integrated cellular response. […] Cellular responses shown on the y-axis in (FIG. 3A) to (FIG. 3E) were measured by CDS.
Osteoblasts were isolated from bone specimens obtained intraoperatively from vertebras (varying from T3 to L4 according to the surgical procedure performed) and from other anatomical sites (tibia or femur) in AIS patients and trauma control cases, respectively as previously described (Moreau et al., 2004).
as §1
The response produced with their maximum concentration (10 μM) in osteoblasts from control subjects and AIS patients of each functional group was compared.

beta-adrenergic receptor = experiment: Functional status of Gs protein in osteoblasts, isoproterenol challenge (CDS); type: cell-based, human
Method: as §1

melatonin receptor [3] = conditions: normal osteoblasts; CDS (Akoume et al., 2010); cited from earlier work
[4] = test system: response to Gi stimulation; experiment: Effect of Gi and Gs siRNA on response to Gi stimulation in osteoblasts (CDS); type: cell-based, human
Method: FIG. 12A-FIG. 12H show the differential effects of Gi and Gs siRNA on response to Gi stimulation in AIS functional groups. Osteoblasts from (FIG. 12A) control subjects, (FIG. 12B) FG3, (FIG. 12C) FG2; and (FIG. 12D) FG1 were transfected with Gi1, Gi2, Gi3 or Gs siRNA alone or in combination, or with scrambled siRNA, as indicated in Example 1—Materials and Methods. Efficiency of siRNA was verified with qPCR in each functional group (FIG. 12E to FIG. 12H) 48 hours after transfection, and response to Gi stimulation was measured by CDS and evaluated by challenging cells with Apelin-17, LPA or Somatostatin. Results from a single representative subject for each group are presented. Data were normalised to response in cells transfected with scrambled siRNA (% response shown on the y-axis and measured by CDS), and are expressed as mean±SE, of n=6 patients in each functional group. * P<0.05, **P<0.01, ***P<0.001, vs. control group.
as §1
All Gi1, Gi2, Gi3, Gs and scrambled siRNA were obtained from Ambion (Ambion USA). Osteoblasts from control subjects and AIS patients were transiently transfected in serum-free medium, using Lipofectamine RNAiMAX™ reagent (Invitrogen) according to the manufacturer's instructions and functional experiments were performed 48 h post transfection. The gene knockdown was evaluated by quantitative real-time PCR (qPCR).
Silencing of each gene reduced by 75-85% the expression of the corresponding mRNA in osteoblasts from control and the three AIS groups (FIGS. 12E-H). […] The response to each tested agonist was reduced by at least 75% by silencing Gi3 alone in FG2 osteoblasts (FIG. 12C), and by 90% by silencing Gi1 alone in FG3 osteoblasts ([…]) confirming that the residual response to Gi stimulation is mediated by Gi3 and Gi1 isoforms in FG2 and FG3 groups, respectively. In FG1 osteoblasts, response to each agonist was reduced by 50% following the depletion of all Gi isoforms by siRNA, and was not affected by the knockdown of individual Gi isoforms ([…]).

Gi proteins = experiment: Inhibition by GPAnt-2 or pertussis toxin of osteoblast response to Gi-coupled receptor agonists (CDS); type: cell-based, human; conditions: for effect on cellular response to melatonin: 16 hours
Method: as §2, §1

Compound: COc1ccc2c(c1)c(C1=C(c3c[nH]c4ccccc34)C(=O)NC1=O)cn2CCCN(C)C [Gö8963, Gö6983]
- effect on response to Gi stimulation via LPA or somatostatin ([1]; FG1 osteoblasts): significantly increased
- effect on response to Gi stimulation via LPA or somatostatin ([1]; FG2 osteoblasts): devoid of significant effect
- effect on response to Gi stimulation via LPA or somatostatin ([1]; FG3 osteoblasts): not improved

Compound: O=S(=O)(NCCNC/C=C/c1ccc(Br)cc1)c1cccc2cnccc12 [H89]
- effect on response to Gi stimulation via LPA or somatostatin ([1]; FG1 osteoblasts): increased the signalling response
- effect on response to Gi stimulation via LPA or somatostatin ([1]; FG2 osteoblasts): increased the signalling response
- effect on response to Gi stimulation via LPA or somatostatin ([1]; FG3 osteoblasts): increased the signalling response

Compound: COc1ccc2[nH]c(I)c(CCNC(C)=O)c2c1 [iodomelatonin]
- order of agonist potency (melatonin receptor [2]): phenylmelatonin>iodomelatonin>melatonin

Compound: CC(C)NCC(O)c1ccc(O)c(O)c1 (stereo not shown) [isoproterenol]
- cellular response, AIS osteoblasts vs control osteoblasts (beta-adrenergic receptor): significantly enhanced

Compound: Gi2 siRNA: siRNA from Ambion, GAGGACCUGAAUAAGCGCAAAGACA (SEQ ID NO: 98)
- reduction of response to each tested agonist ([4]; control group osteoblasts): not significantly affected

Compound: Gs siRNA: siRNA from Ambion, ACAACAUGGUCAUCCGGGAGGACAA (SEQ ID NO: 100)
- reduction of response to each tested agonist ([4]; FG1 osteoblasts): 50%
- reduction of response to each tested agonist ([4]; FG2 osteoblasts): devoid of effect
- reduction of response to each tested agonist ([4]; FG3 osteoblasts): devoid of effect
- reduction of response to each tested agonist ([4]; control group osteoblasts): devoid of effect

Compound: pertussis toxin [PTX]
- effect on cellular response to melatonin (Gi proteins; FG1 osteoblasts, maximal concentration): enhanced the response to melatonin
- effect on cellular response to melatonin (Gi proteins; FG2 and FG3 osteoblasts, increasing concentration): reduced the cellular response to melatonin
- effect on response to mastoparan (Gi proteins; high concentrations, all AIS and control groups): almost abolished
- inhibition curve patterns (Gi proteins; response to any of the five synthetic agonists, osteoblasts (GPAnt-2 4 h, PTX 16 h)): curve patterns similar to those obtained with melatonin

The next lines start with results.

- effect on response to Gi stimulation via LPA or somatostatin ([1]; FG1 osteoblasts): increased response
- effect on response to Gi stimulation via LPA or somatostatin ([1]; FG3 osteoblasts): increased response
Compound: NC(=O)c1ccc(-c2nc(-c3ccc4c(c3)OCCO4)c(-c3ccccn3)[nH]2)cc1 [D4476]

- effect on response to Gi stimulation via LPA or somatostatin ([1]; FG1 osteoblasts): unaffected
- effect on response to Gi stimulation via LPA or somatostatin ([1]; FG2 osteoblasts): increased the signalling response
- effect on response to Gi stimulation via LPA or somatostatin ([1]; FG3 osteoblasts): not improved
Compound: COc1ccc(S(=O)(=O)N(CCO)c2ccccc2CN(C)C/C=C/c2ccc(Cl)cc2)cc1 [KN93]

- order of magnitude of the maximum response from highest to lowest (melatonin receptor [2]; osteoblasts, control vs AIS functional groups): control group, FG3, FG2 and FG1
- order of agonist potency (melatonin receptor [2]): phenylmelatonin>iodomelatonin>melatonin
Compound: COc1ccc2[nH]cc(CCNC(C)=O)c2c1 [melatonin]
- concentration at which the response reaches a plateau (melatonin receptor [2]; osteoblasts, all control and AIS groups): 1 µM
- cellular response to melatonin (melatonin receptor [2]; osteoblasts, all control and AIS groups, CDS): concentration-dependent increase of response
- G protein dependence of cellular response to melatonin receptor stimulation (melatonin receptor [3]): mainly Gi-dependent in normal osteoblasts

- order of agonist potency (melatonin receptor [2]): phenylmelatonin>iodomelatonin>melatonin
Compound: COc1ccc2[nH]c(-c3ccccc3)c(CCNC(C)=O)c2c1 [phenylmelatonin]

- effect on response to Gi stimulation via LPA or somatostatin ([1]; FG1 osteoblasts): significantly increased
- effect on response to Gi stimulation via LPA or somatostatin ([1]; FG2 osteoblasts): increased the signalling response
- effect on response to Gi stimulation via LPA or somatostatin ([1]; FG3 osteoblasts): not improved
Compound: STO-609 acetate
